Source: the NIST ThermoML archive (doi:10.1021/je2000952)

Conditions: Liquid, Closed cell (Static) method

C=C(F)C(F)(F)F [2,3,3,3-tetrafluoro-1-propene]
Conditions | vapor or sublimation pressure [kPa]
245.65 K | 110.3
248.15 K | 122.6
250.65 K | 136.1
253.15 K | 150.7
255.65 K | 166.4
258.15 K | 183.6
260.65 K | 201.9
263.15 K | 221.6
265.65 K | 242.5
268.15 K | 265.2
270.65 K | 289.7
273.15 K | 315.7
275.65 K | 343.3
278.15 K | 372.8
280.65 K | 404.1
283.15 K | 437.4
285.65 K | 472.9
288.15 K | 510.3
290.65 K | 549.9
293.16 K | 591.8
295.65 K | 636
298.16 K | 682.7
300.66 K | 731.9
303.16 K | 783.6
305.66 K | 838.1
308.16 K | 895.3
310.66 K | 955.5
313.16 K | 1018.5
315.66 K | 1084
318.16 K | 1153.4
320.66 K | 1225.8
323.16 K | 1301.6
325.65 K | 1381
328.15 K | 1463.9
330.66 K | 1550.6
333.16 K | 1641.1
335.66 K | 1735.7
338.16 K | 1833.9
340.66 K | 1936.6
343.15 K | 2043.7

FCC(F)(F)F [1,1,1,2-tetrafluoroethane]
Conditions | vapor or sublimation pressure [kPa]
283.13 K | 414.4
293.14 K | 571.1
303.12 K | 769.2
313.11 K | 1014.9
323.17 K | 1318.5
333.16 K | 1681.1
343.16 K | 2117.3
